Consider 21 compounds from patent US9951014B2, “Mammalian and bacterial nitric oxide synthase inhibitors” (Northwestern University, priority 2014, dated 2018).

The target of one assay is rat nNOS (Rattus norvegicus (Rat), UniProt P29476). As to the kind of experiment: Oxyhemoglobin NO capture assay with purified NOS. The assay is classed as biochemical.
The target in the next assay is murine iNOS (Mus musculus (Mouse), UniProt P29477). Description: Oxyhemoglobin NO capture assay with purified NOS. The assay is classed as biochemical. Particulars: for i/n selectivity: ratio Ki iNOS / Ki rat nNOS.
For the next assay, the target named is human nNOS (Homo sapiens (Human), UniProt P29475). Description: Oxyhemoglobin NO capture assay with purified NOS. It counts as biochemical. Particulars: Table 9; read-out: Ki H nNOS.
The target in the next assay is bovine eNOS (Bos taurus (Bovine), UniProt P29473). Description: Oxyhemoglobin NO capture assay with purified NOS. It counts as biochemical. Particulars: for e/n selectivity: ratio Ki eNOS / Ki rat nNOS.
Assay [1] concerns the target T1, bsNOS (Bacillus subtilis (strain 168), UniProt O34453). As to the kind of experiment: Imidazole displacement, spectral binding constant KS.
Assay [2] deals with S. aureus UAMS1182 (MRSA). As to the kind of experiment: Effect of H2O2 and NOS inhibitors on S. aureus viability (CFU). It counts as cell-based, Staphylococcus aureus. Particulars: for effect of co-treatment with H2O2 on killing of S. aureus: 200 μM inhibitor + 5 mM H2O2; for S. aureus survival, inhibitor alone: 200 μM inhibitor, WT and Δnos strains.
The target in the next assay is nNOS (Rattus norvegicus (Rat), UniProt P29476). Particulars: literature data (footnote b); read-out: KS nNOS; cited from earlier work.
The target of another assay is eNOS (Bos taurus (Bovine), UniProt P29473). Particulars: literature data (footnotes a, c); read-out: KS eNOS; cited from earlier work.
The target of assay [3] is T1, bsNOS. Particulars: cited from earlier work.
For the next assay, the system named is B. subtilis. As to the kind of experiment: Effect of oxidative/antimicrobial stress and NOS inhibitors on B. subtilis survival (CFU). It counts as cell-based, Bacillus subtilis.
Where [4] appears, read: WT − KS, wild-type bsNOS, Table 8.
Where [5] appears, read: wt B. subtilis, L-NNA, 1 at 500 μM, 2 at 250 μM.

Like-named read-outs stand apart in the source and are kept apart here.

T1 sequence (O34453 whole entry): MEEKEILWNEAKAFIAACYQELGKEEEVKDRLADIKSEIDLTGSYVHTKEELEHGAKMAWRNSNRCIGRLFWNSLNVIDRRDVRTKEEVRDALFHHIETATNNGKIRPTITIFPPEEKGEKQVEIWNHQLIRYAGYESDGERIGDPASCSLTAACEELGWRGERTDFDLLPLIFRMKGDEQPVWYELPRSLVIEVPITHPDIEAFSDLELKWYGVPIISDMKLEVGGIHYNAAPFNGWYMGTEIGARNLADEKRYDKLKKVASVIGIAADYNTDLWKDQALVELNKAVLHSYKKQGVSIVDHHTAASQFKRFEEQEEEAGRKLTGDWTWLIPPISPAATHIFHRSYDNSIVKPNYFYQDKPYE
Description for bovine eNOS: (§1) The oxyhemoglobin NO assays were performed with purified NOSs using a Biotek Gen5™ microplate reader as previously reported. […] For iNOS, calmodulin and CaCl2 were omitted because iNOS is calcium independent. […] The calculated standard deviations of the assays were less than 10% with all NOSs. […] The selectivity of antagonism of nNOS was determined by calculating the ratios of the Ki values with iNOS or eNOS to those with rat nNOS.
Description for human nNOS: as §1
Description for murine iNOS: as §1
Description for rat nNOS: as §1

Usually Ki stands for a measure of affinity in units of concentration, obtained from inhibition or displacement. In the case of `CNCCN(C)c1cccc(CCc2cc(C)cc(N)n2)c1` [Compound 10a, N^1-(3-(2-(6-Amino-4-methylpyridin-2-yl)ethyl)phenyl)-N^1,N^2-dimethylethane-1,2-diamine], the Ki at rat nNOS (Table 9, read-out: Ki Rat nNOS) is 0.13 ± 0.01 µM; on murine iNOS (Table 9, read-out: Ki iNOS), 5.34 µM; at human nNOS it was 0.098 ± 0.005 µM; at bovine eNOS (Table 9, read-out: Ki eNOS), 20.2 µM. For the same compound, the i/n selectivity at murine iNOS (Table 9) is listed as 41. Moreover, the e/n selectivity on bovine eNOS (Table 9) came out at 156.
As for `Cc1cc(N)nc(CCc2cccc(NCCN(C)C)c2)c1` [Compound 10b, N^1-(3-(2-(6-Amino-4-methylpyridin-2-yl)ethyl)phenyl)-N^2,N^2-dimethylethane-1,2-diamine], the Ki at rat nNOS (Table 9, read-out: Ki Rat nNOS) came out at 0.19 ± 0.012 µM; at murine iNOS (Table 9, read-out: Ki iNOS), 5.43 µM; on human nNOS, 0.111 ± 0.009 µM; at bovine eNOS (Table 9, read-out: Ki eNOS) it was 23.7 µM. The i/n selectivity at murine iNOS (Table 9) was 29. Moreover, the e/n selectivity on bovine eNOS (Table 9) came out at 125.
For the compound `Cc1cc(N)nc(CCc2cccc(N(C)CCN)c2)c1` [Compound 10c, N^1-(3-(2-(6-Amino-4-methylpyridin-2-yl)ethyl)phenyl)-N^1-methylethane-1,2-diamine], the Ki amounted to 0.062 ± 0.0041 µM on rat nNOS (Table 9, read-out: Ki Rat nNOS); 2.9 µM at murine iNOS (Table 9, read-out: Ki iNOS); 0.056 ± 0.002 µM on human nNOS; 10.7 µM at bovine eNOS (Table 9, read-out: Ki eNOS). In addition, the i/n selectivity on murine iNOS (Table 9) is 47. Also, the e/n selectivity at bovine eNOS (Table 9) is listed as 172.
With `Cc1cc(N)nc(CCc2cccc(N(C)CCCN)c2)c1` [Compound 10d, N^1-(3-(2-(6-Amino-4-methylpyridin-2-yl)ethyl)phenyl)-N^1-methylpropane-1,3-diamine], the Ki on rat nNOS (Table 9, read-out: Ki Rat nNOS) amounted to 0.43 ± 0.022 µM; on murine iNOS (Table 9, read-out: Ki iNOS), 4.64 µM; at human nNOS, 0.109 ± 0.003 µM; on bovine eNOS (Table 9, read-out: Ki eNOS) it was 10.7 µM. Further, the i/n selectivity on murine iNOS (Table 9) is 11. At bovine eNOS (Table 9), the e/n selectivity amounted to 25.
As for `CNCCN(C)c1cncc(CCc2cc(C)cc(N)n2)c1` [Compound 14b, N^1-(5-(2-(6-Amino-4-methylpyridin-2-yl)ethyl)pyridin-3-yl)-N^1,N^2-dimethylethane-1,2-diamine], the Ki at human nNOS was 0.059 ± 0.0032 µM; on bovine eNOS (Table 9, read-out: Ki eNOS), 12.9 µM.
On bsNOS [1] (KS (bsNOS), Table 5), `Nc1ccc2ccc(CCNCCCc3cccc(F)c3)cc2n1` [Compound 19] displayed a Kd of 3.6 ± 0.8 µM. The compound also returned a Kd on bsNOS [1] (setting [4]) of 3.6 ± 0.8 µM. Moreover, in [2], the “effect of co-treatment with H2O2 on killing of S. aureus” value was “significantly increases the H2O2-mediated killing” and the “S. aureus survival, inhibitor alone” value was “reduced bacterial survival over time”.
As to `CNCCN(C)c1cc(CCc2cc(C)cc(N)n2)cc(C(F)(F)F)c1` [Compound 19a, N^1-(3-(2-(6-Amino-4-methylpyridin-2-yl)ethyl)-5-(trifluoromethyl)phenyl)-N^1,N^2-dimethylethane-1,2-diamine], the inhibition constant (Ki) stood at 0.067 ± 0.0033 µM on rat nNOS (Table 9, read-out: Ki Rat nNOS); 8.13 µM on murine iNOS (Table 9, read-out: Ki iNOS); 0.189 ± 0.016 µM on human nNOS; 15.9 µM at bovine eNOS (Table 9, read-out: Ki eNOS). For the same compound, the i/n selectivity at murine iNOS (Table 9) came out at 122. For the same compound, the e/n selectivity on bovine eNOS (Table 9) is given as 238.
In the case of `CNCCN(C)c1cc(F)cc(CCc2cc(C)cc(N)n2)c1` [Compound 19b, N^1-(3-(2-(6-Amino-4-methylpyridin-2-yl)ethyl)-5-fluorophenyl)-N^1,N^2-dimethylethane-1,2-diamine], the Ki worked out at 0.034 ± 0.0012 µM on rat nNOS (Table 9, read-out: Ki Rat nNOS); 5.56 µM at murine iNOS (Table 9, read-out: Ki iNOS); 0.105 ± 0.0081 µM on human nNOS; 30.2 µM at bovine eNOS (Table 9, read-out: Ki eNOS).
At bsNOS [1] (KS (bsNOS), Table 5), `Cc1cc(N)nc(CCc2cc(C#N)cc(NCc3cccc(F)c3)c2)c1` [Compound 23, 3-(2-(6-Amino-4-methylpyridin-2-yl)ethyl)-5-((3-fluorobenzyl)amino)benzonitrile] came in with a Kd of 9.6 ± 1.3 µM.
Consider `Cc1cc(N)nc(CCc2cc(F)cc(NCc3ccc(F)cc3)c2)c1` [Compound 24, 6-(3-Fluoro-5-((4-fluorobenzyl)amino)phenethyl)-4-methylpyridin-2-amine], for which, on bsNOS [1] (KS (bsNOS), Table 5), the Kd is 29 ± 4 µM.
Take `Cc1cc(N)nc(CCc2cc(F)cc(NCc3cccc(F)c3)c2)c1` [Compound 25, 6-(3-Fluoro-5-((3-fluorobenzyl)amino)phenethyl)-4-methylpyridin-2-amine]: the Kd at bsNOS [1] (KS (bsNOS), Table 5) stood at 19 ± 5 µM.
Consider `CNCCN(C)Cc1ccc(-c2cc(C)cc(N)n2)cc1` [Compound 26, N1-(4-(6-amino-4-methylpyridin-2-yl)benzyl)-N1,N2-dimethylethane-1,2-diamine], for which the Kd at bsNOS [1] (KS (bsNOS), Table 5) worked out at 6.3 ± 0.3 µM.
Turning to `Cc1cc(N)nc(-c2ccc(CNCCc3cccc(F)c3)cc2)c1` [Compound 27, 6-(4-(((3-Fluorophenethyl)amino)methyl)phenyl)-4-methylpyridin-2-amine], the Ki was found to be 0.525 µM at rat nNOS, 6.44 µM on murine iNOS and 2.87 µM on bovine eNOS. Moreover, the Kd was determined as 8.9 ± 2 µM at bsNOS [1] (KS (bsNOS), Table 5) and 8.8 ± 2 µM at bsNOS [1] (setting [4]). Besides, the “effect of co-treatment with H2O2 on killing of S. aureus” value in assay [2] is on record as “significantly increases the H2O2-mediated killing”. Moreover, the “S. aureus survival, inhibitor alone” value in assay [2] was “reduced bacterial survival over time”.
As to `Cc1cc(N)nc(-c2ccc(CNCCCc3cccc(Cl)c3)cc2)c1` [Compound 28, 6-(4-(((3-(3-Chlorophenyl)propyl)amino)methyl)phenyl)-4-methylpyridin-2-amine], the Kd at bsNOS [1] (KS (bsNOS), Table 5) came out at 3.2 ± 0.1 µM.
On to `Cc1cc(N)nc(-c2ccc(CNCc3cccc(F)c3)cc2)c1` [Compound 29, 6-(4-(((3-Fluorobenzyl)amino)methyl)phenyl)-4-methylpyridin-2-amine], for which the Kd on bsNOS [1] (KS (bsNOS), Table 5) amounted to 1.5 ± 0.3 µM.
The compound `CNCCN(C)c1cccc(Cc2cc(C)cc(N)n2)n1` [Compound 31] displayed a Kd at bsNOS [1] (KS (bsNOS), Table 5) of 94 ± 22 µM.
As to `CNCCN(C)Cc1cccc(Cc2cc(C)cc(N)n2)c1` [Compound 32], at bsNOS [1] (KS (bsNOS), Table 5), the Kd came to 1.6 ± 0.6 µM.
Consider `N=C(N)NCCC[C@H](N)C(=O)O` [L-Arg, L-arginine], for which the Kd on bsNOS [1] (KS bsNOS, imidazole displacement, Tables 1 and 4) is 0.76 µM; at nNOS, 0.72 µM; at eNOS, 1 µM; on bsNOS [3] (read-out: WT − KS, wild-type bsNOS, referenced value (25)), 4.8 µM.
As to `N=C(NCCC[C@H](N)C(=O)O)N[N+](=O)[O-]` [L-NNA, N^ω-nitro-L-arginine, reference compound], in the assay on B. subtilis (setting [5]), the “effect on bacterial % survival in the presence of ACR” value is on record as “bacterial % survival decreased” and the “effect on bacterial % survival in the presence of H2O2” value is on record as “trivial effects on bacterial survival”.
For the compound `NC(=NCCC[C@H](N)C(=O)O)NO` [NOHA, N-omega-hydroxy-L-arginine, reference compound], at bsNOS [1] (50 μM H4B), the “fold difference in KS binding to bsNOS in presence vs absence of H4B” value is given as 1.2 fold. Further, the Kd is 1.9 ± 0.1 µM at bsNOS [1] (presence of 50 μM H4B, read-out: KS bsNOS (+H4B)) and 3.2 µM at bsNOS [3] (absence of H4B, referenced values (8), (9), read-out: KS bsNOS (−H4B)).
acriflavine: in the assay with B. subtilis (B. subtilis, agent alone (800 μM ACR or 500 μM NOS inhibitor)), the “bacterial growth, % of control” value was 23 % of control.
